# Measurements: patent US11207312B2, “Metallo-beta-lactamase inhibitors and methods of use thereof” (priority 2017, dated 2021)
# Key:
# [1] = target: NDM-1 (Klebsiella pneumoniae, UniProt C7C422); test: biochemical; type: biochemical; details: CCF2-FA fluorescence assay, 2 hours at 25° C.
# In short: (§1)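 IC50s come from 4-parameter fits of inhibition versus inhibitor concentration, tested from 20 μM down to 0.00063 μM. Enzyme, CCF2-FA (1.25 μM) and inhibitor react 2 h at 25° C, pH 7, with 10 μM ZnSO4 and 0.005% Tween-20.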
# [2] = target: IMP-1 (Serratia marcescens, UniProt P52699); test: biochemical; details: CCF2-FA fluorescence assay, 2 hours at 25° C.; read-out: IMP1 IC50
# In short: as §1
# [3] = target: VIM-1 (Pseudomonas aeruginosa (strain ATCC 15692 / DSM 22644 / CIP 104116 / JCM 14847 / LMG 12228 / 1C / PRS 101 / PAO1), UniProt A0A0F7KYQ8); test: biochemical; details: CCF2-FA fluorescence assay, 2 hours at 25° C.; read-out: VIM1 IC50
# In short: as §1
# [4] = target: VIM-2 (Escherichia coli, UniProt Q5U7L7); test: biochemical; details: CCF2-FA fluorescence assay; read-out: VIM2 IC50
# [5] = system: Escherichia coli expressing NDM-1 (CLB30016); type: cell-based; details: with imipenem 1 μg/ml; 95% inhibition of bacterial growth
# In short: (§2)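 Read-out is absorbance after 22–24 h at 35 °C, with MITC95 taken as the lowest inhibitor concentration that, alongside imipenem at 1 μg/ml, suppresses 95% of bacterial growth. Inocula came from saline-suspended colonies diluted 1:100 into 1.1× CAMHB.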
# [6] = system: Klebsiella pneumoniae expressing VIM-1 (IHMA599644); type: cell-based; details: with imipenem 1 μg/ml; 95% inhibition of bacterial growth
# In short: as §2
# [7] = system: Serratia marcescens expressing IMP-1 (CL5741); type: cell-based; details: with imipenem 1 μg/ml; 95% inhibition of bacterial growth
# In short: as §2
# [8] = system: P. aeruginosa MB9798 (efflux+, IMP-1 plasmid); details: for MB9798 MITC95 P. aeruginosa uM Efflux WT: efflux + (MB9798) strain, imipenem at 2 μg/mL, in the presence of a class A, C, D serine β-lactamase inhibitor closely related to relebactam; for Efflux ratio: fold difference between efflux+ (MB9798) and efflux− (MB9799) strains
# In short: (§3)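 Isogenic P. aeruginosa PAO1 strains (efflux+ and multiple-efflux-pump-disrupted) carrying plasmid IMP-1, with inducible AmpC, tested by broth microdilution. Imipenem and/or ceftazidime fixed, usually at CLSI breakpoint, plus fixed class A/C β-lactamase inhibitor; titrated MBL inhibitor concentration restoring susceptibility recorded and compared between strains as efflux fold difference.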
# [9] = system: P. aeruginosa MB9799 (efflux-, IMP-1 plasmid); type: cell-based, Pseudomonas aeruginosa; details: efflux − (MB9799) strain; imipenem at 2 μg/mL; in the presence of a class A, C, D serine β-lactamase inhibitor closely related to relebactam
# In short: as §3
# Sequence of NDM-1 (C7C422 whole entry, looked up, species assumed): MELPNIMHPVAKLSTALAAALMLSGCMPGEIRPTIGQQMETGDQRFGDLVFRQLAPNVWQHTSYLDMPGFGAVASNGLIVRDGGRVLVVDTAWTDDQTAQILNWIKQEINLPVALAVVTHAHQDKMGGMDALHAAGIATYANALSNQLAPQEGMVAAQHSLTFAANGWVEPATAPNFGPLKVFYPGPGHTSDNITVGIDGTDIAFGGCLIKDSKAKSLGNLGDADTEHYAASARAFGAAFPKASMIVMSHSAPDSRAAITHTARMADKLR
# Sequence of IMP-1 (P52699 whole entry, looked up, species assumed): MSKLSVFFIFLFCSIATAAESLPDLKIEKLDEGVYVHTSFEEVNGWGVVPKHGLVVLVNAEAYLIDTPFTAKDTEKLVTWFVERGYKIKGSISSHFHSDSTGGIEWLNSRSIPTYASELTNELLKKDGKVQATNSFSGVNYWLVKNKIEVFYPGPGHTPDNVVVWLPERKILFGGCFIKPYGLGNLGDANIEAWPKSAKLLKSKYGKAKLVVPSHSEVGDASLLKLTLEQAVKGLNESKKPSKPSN
Structure (SMILES),IC50 [1],IC50 [2],IC50 [3],IC50 [4],CLB30016 E. coli MITC95 NDM [5],IHMA599644 K. pneumoniae MITC95 VIM [6],CL5741 S. marcescens MITC95 IMP [7],MB9798 MITC95 P. aeruginosa uM Efflux WT [8],Efflux ratio [8],MB9799 MITC95 P. aeruginosa uM Efflux Mutant [9]
"NS(=O)(=O)c1c(S(=O)(=O)N[C@@H]2CCNC2)ccc(N2CCCC(C(=O)NCCCO)C2)c1-c1nnn[nH]1 (stereo partly drawn) [Example 108, N-(3-hydroxypropyl)-1-{4-[(3R)-pyrrolidin-3-ylsulfamoyl]-3-sulfamoyl-2-(1H-tetrazol-5-yl)phenyl}piperidine-3-carboxamide]",0.71 nM,2.39 nM,0.5 nM,1.77 nM,6.25 µM,12.50 µM,12.50 µM,12.50 µM,2.00,6.25 µM
"NS(=O)(=O)c1c(S(=O)(=O)N[C@@H]2CCNC2)ccc(N2CCN(C(=O)CO)CC2)c1-c1nnn[nH]1 [Example 109, 4-[4-(hydroxyacetyl)piperazin-1-yl]-N1-[(3R)-pyrrolidin-3-yl]-3-(1H-tetrazol-5-yl)benzene-1,2-disulfonamide]",0.51 nM,2.21 nM,0.43 nM,1.9 nM,3.13 µM,6.25 µM,3.13 µM,3.13 µM,1.00,3.13 µM
"NS(=O)(=O)c1c(S(=O)(=O)N[C@@H]2CCNC2)ccc(N2CCC(Oc3ccccn3)CC2)c1-c1nnn[nH]1 [Example 110, 4-[4-(pyridin-2-yloxy)piperidin-1-yl]-N1-[(3R)-pyrrolidin-3-yl]-3-(1H-tetrazol-5-yl)benzene-1,2-disulfonamide]",0.06 nM,0.1 nM,0.12 nM,0.47 nM,3.13 µM,6.25 µM,3.13 µM,50.00 µM,31.99,1.56 µM
"NS(=O)(=O)c1c(S(=O)(=O)N[C@@H]2CCNC2)ccc(N2CC(N3CCOCC3)C2)c1-c1nnn[nH]1 [Example 111, 4-(3-morpholin-4-ylazetidin-1-yl)-N1-[(3R)-pyrrolidin-3-yl]-3-(1H-tetrazol-5-yl)benzene-1,2-disulfonamide]",4.56 nM,4.16 nM,1.24 nM,8.65 nM,0.78 µM,3.13 µM,1.56 µM,12.50 µM,8.00,1.56 µM
"NS(=O)(=O)c1c(S(=O)(=O)N[C@@H]2CCNC2)ccc(N2CC(N3CCCCC3)C2)c1-c1nnn[nH]1 [Example 112, 4-(3-piperidin-1-ylazetidin-1-yl)-N1-[(3R)-pyrrolidin-3-yl]-3-(1H-tetrazol-5-yl)benzene-1,2-disulfonamide]",8.98 nM,15 nM,2.9 nM,16.6 nM,0.78 µM,3.13 µM,1.56 µM,50.00 µM,31.99,1.56 µM
"NS(=O)(=O)c1c(S(=O)(=O)N[C@@H]2CCNC2)ccc(N2CC3(CCNCC3)C2)c1-c1nnn[nH]1 [Example 113, 4-(2,7-diazaspiro[3.5]non-2-yl)-N1-[(3R)-pyrrolidin-3-yl]-3-(1H-tetrazol-5-yl)benzene-1,2-disulfonamide]",13.7 nM,33.1 nM,0.81 nM,119 nM,0.78 µM,1.56 µM,1.56 µM,6.25 µM,8.00,0.78 µM
